This note sets out measurements from patent publication US20060052319A9, “Sensitization of cells to cytotoxic agents using oligonucleotides directed to nucleotide excision repair or transcritpion coupled repair genes” (priority 2000, published 2006).

Like-named read-outs stand apart in the source and are kept apart here.

For one data set, the system named is XPA mRNA. The data set can be described thus: RT-PCR analysis of XPA mRNA levels after oligonucleotide transfection. In kind it is cell-based. The conditions noted are these: A2780/CP70 cells, 200 nM oligonucleotide with lipofectin, FIG. 3. As for the experimental part: (§1) Total RNA was isolated from 2×10^6 cells using a total RNA isolation kit (S.N.A.P., Invitrogen, Carlsbad, Calif.) as instructed and was quantitated spectrophotometrically via absorbance at 260 nm. RT-PCR analysis was performed using the Superscript One-Step RT-PCR System (Life Technologies, Rockville, Md.). Ten ng samples of total RNA were used for RT-PCR analyses because it was determined that quantities of RT-PCR products derived from XPA and CSB mRNA varied in a linear fashion when RT-PCR was performed on total RNA samples of 1-50 ng. For CSB, primers: […]
(§2) were selected to amplify a 235-bp segment.
(§3) RT-PCR amplification was performed for 40 cycles to detect low mRNA levels while remaining in the linear range of PCR. Aliquots of amplified DNA were resolved via 1.5% agarose gel electrophoresis and visualized by ethidium bromide staining.

In data set [1] the test system is A2780/CP70 ovarian carcinoma cells. As to the kind of experiment: MTS cell proliferation assay, sensitization to cisplatin or oxaliplatin after oligonucleotide transfection. As to conditions: for reduction of the ID50 of cisplatin / reduction of the ID50 of oxaliplatin / sensitivity of the cells to cisplatin or oxaliplatin (cytotoxicity of both platinum agents): A2780/CP70 cells transfected with oligonucleotide, three days in drug, MTS assay; for potentiation of cisplatin or oxaliplatin, dose response curves normalized to HYB 1019-transfected cells: A2780/CP70 cells, normalized to control oligonucleotide. In general terms: Formazan colour is commonly taken as a measure of viable cells.
Description: (§7) The oligonucleotides targeting CSB (969 and 971) were tested for their ability to sensitize A2780/CP70 cells to cisplatin or oxaliplatin. Cells were transfected with oligonucleotides and 24 hours later were replated on 96 well plates. After culturing in the presence of drug for another three days, cell viability was assessed by the MTS assay.
(§8) Delivery of oligonucleotides into A2780/CP70 cells for RT-PCR and cell proliferation assays was achieved using Lipofectin (Life Technologies, Rockville, Md.) as per the manufacturer's procedure. The final concentration of oligonucleotides was 200 nM and final concentration of lipofectin was 10 μg/ml. After 4 hours incubation with the lipofectin-oligonucleotides mixture, cells were replaced with normal culture medium and treated as indicated for subsequent assays.
(§9) For A2780/CP70 cells transfected with oligonucleotides or mismatched controls, cells were harvested via trypsinization 16-24 hrs after transfection and transferred to 96 well plates at 5×10^3 cells per well. […] Twenty-four hours after transfer, cells in quadruplicate wells were treated with cisplatin (Sigma, St. Louis, Mo.) in 2 mM phosphate buffered saline (PBS) or oxaliplatin National Cancer Institute) in 4 mM PBS at serial dilutions in culture medium or with no drug and maintained for three more days. Cell survival was quantitated using the CellTiter 96 Non-radioactive Cell Proliferation Assay (Promega, Madison, Wis.). […] A Trypan blue exclusion assay was also performed to verify that the values obtained via the cell titer assay correlated to numbers of viable cells. Readings from quadruplicate wells were averaged, normalized with respect to readings obtained from cells unexposed to drug, and are presented +/− standard deviation. Statistical significance was assessed via ANOVA (one-way followed by Dunnett's multiple comparison test) using the Prism software package (GraphPad, Inc. San Diego, Calif.). P values reported are for the multiple comparison test.

Another data set has as its system A2780/CP70 cells. The data set can be described thus: Growth in soft agar (colony) assay with cisplatin or oxaliplatin. In kind it is cell-based. The conditions noted are these: in the presence of either cisplatin or oxaliplatin, colonies counted 10 days later. As for the experimental part:
An alternative method for assessing the ability of oligonucleotides to inhibit tumor cell proliferation was also utilized. In this method, the transfected cells were transferred to soft agar containing various concentrations of oxaliplatin or cisplatin. Resulting colonies were counted 10 days later.
For growth in soft agar assay, cells transfected the previous day with oligonucleotides as described above were suspended (10^4 cells/well) in 0.5 ml of 0.3% Difco Noble agar (Becton Dickinson & Co. Microbiology Systems, Sparks, Md.) supplemented with complete culture medium and layered over 0.5 ml of 0.8% agar-medium in chambers of 24 well plates. Drug was added (day 0) and colonies counted ten days later after staining with nitroblue tetrazolium (Sigma, St. Louis, Mo.) as previously described (Rockx, et al. (2000) Proc. Nat. Acad. Sci. (USA) 97:10503-8). For this assay, statistical comparison was via paired t-test.

The test system of another data set is CSB mRNA. As to the kind of experiment: RT-PCR analysis of CSB mRNA levels after oligonucleotide transfection. In kind it is cell-based. As to conditions: A2780/CP70 cells, 200 nM oligonucleotide with lipofectin, FIG. 3. As for the experimental part: as §1, §2, §3
For data set [2], the system named is A2780/CP70 ovarian carcinoma cells. As to the kind of experiment: Plate assay of cell proliferation in the absence of added drug (cell number by hemacytometer). Type of data set: cell-based. The conditions noted are these: absence of any other anti-cancer agents, two days in culture. As for the experimental part: FIG. 8 is a graphic representation showing that anti-CSB oligonucleotides retard cell proliferation in the absence of cytotoxic agents. A2780/CP70 ovarian carcinoma cells were transfected with indicated oligonucleotides and maintained in culture media for two more days to assess cell proliferation rate.
A plate assay was also performed in the absence of added drug. Cells treated with oligonucleotides or mismatched controls were maintained in culture for two days. Cells were then trypsinized and cell number was determined using a hemacytometer. Numbers from three independent experiments were averaged and standard deviation was calculated. Statistical comparison was via paired t-test.

For data set [3] the test system is unchanged. As to the kind of experiment: MTS cell proliferation assay, sensitization to oxidizing agents (hydrogen peroxide, gamma radiation). Type of data set: cell-based. As to conditions: MTS assay after three days of growth; for sensitivity of cells to hydrogen peroxide: FIG. 7A; for sensitivity of cells to gamma radiation: FIG. 7B. An excerpt:
FIG. 7A is a graphic representation showing that oligonucleotides targeting CSB mRNA sensitize ovarian carcinoma cells to oxidative damage. A2780/CP70 ovarian carcinoma cells were transfected with oligonucleotides HYB 971 (SEQ ID NO:2) targeting CSB mRNA or control antisense oligonucleotide (HYB 1019) (SEQ ID NO:5) and then transferred to 96-well dishes for exposure to hydrogen peroxide at the indicated concentrations, followed by three days of growth in normal medium and subsequent assessment of cell proliferation via MTS assay.
FIG. 7B is a graphic representation showing that oligonucleotides targeting CSB mRNA sensitize ovarian carcinoma cells to oxidative damage. A2780/CP70 ovarian carcinoma cells were transfected with oligonucleotides HYB 971 (SEQ ID NO:2) targeting CSB mRNA or control antisense oligonucleotide (HYB 1019) (SEQ ID NO:5) and then transferred to 96-well dishes for exposure to gamma radiation at the indicated doses followed by three days of growth in normal medium and subsequent assessment of cell proliferation via MTS assay.
(§4) The cisplatin-resistant ovarian carcinoma cell line A2780/CP70 was maintained in RPMI-1640 medium supplemented with 10% fetal bovine serum, 1× penicillin -streptomycin-neomycin (PSN) (Gibco, Rockville, Md.) 2 mM L-glutamine and 0.2 units/ml insulin (Novo Nordisk Pharmaceuticals, Princeton, N.J.) at 37_C under a humidified 5% CO2 atmosphere. SV40-immortalized CS-B fibroblasts stably transfected with pCSB or control construct (generously provided by Dr. J. Hoeijmakers, Erasmus University, Rotterdam, Netherlands were maintained as previously described (Troelstra et al. (1992) Cell 71:939-953). SV40-immortalized CS-A cell lines (CS3BE.S3.G1+pDR2 and CS3BE.S3.G1+pDR2-CSA), were also maintained as described by Henning et al. (1995) Cell 82:555-564. DNA repair competent (GM 5659C), XP-A (GM2009), and XP-G (GM3021) fibroblasts were obtained from the National Institute of General Medical Sciences Human Genetic Mutant Cell Repository (Camden, N.J.) and maintained as described by Ratner et al. (1998) J. Biolog. Chem. 273:5184-5189. Gamma radiation was administered to cells in a 96 well plate with a Gamma Cell-40 Irradiator (Nordion International, Canada) while the 96 well plate was on ice.
(§5) P values reported are for the multiple comparison test.

Data set [4] shares this test system.
Description: as §7, §8, §9
The next data set relates to XP-G fibroblasts. As to the kind of experiment: MTS proliferation assay of XP-G fibroblasts versus NER proficient 5659C fibroblasts. In kind it is cell-based, human. As for the experimental part: (§6) Primary fibroblasts from XPA, XPG, or repair-competent individuals were exposed to oxaliplatin and assayed as described in FIGS. 1A-D.
as §4, §5

Data set [5] has as its system Immortalized CS-A fibroblasts. The data set can be described thus: MTS proliferation assay of CS-A fibroblasts versus CSA-restored fibroblasts. In kind it is cell-based. The conditions noted are these: 3 days drug exposure. How it is done: as §4, §5
Data set [6] has as its system Immortalized CS-B fibroblasts. As to the kind of experiment: MTS proliferation assay of CS-B fibroblasts versus CSB-restored fibroblasts. In kind it is cell-based. The conditions noted are these: 3 days drug exposure. How it is done: as §4, §5
A further data set concerns XP-A fibroblasts. As to the kind of experiment: MTS proliferation assay of XP-A fibroblasts versus NER proficient 5659C fibroblasts. In kind it is cell-based, human. How it is done: as §6, §4, §5

“5′(590)-d(CCAAACCTGCACGATACATC)-3′ [HYB 1040, reference compound]”: the “XPA mRNA levels” value in the data set with XPA mRNA is recorded as “did not reduce the level of XPA mRNA”.

For “5′(750)-d(GGTCCATACTCATGTTGATG)-3′ (DNA, backbone and methylation of C not given here) [HYB 963]”, in [1], the “reduction of the ID50 of cisplatin” value is listed as “about 25%”, the “reduction of the ID50 of oxaliplatin” value is listed as “about 25%” and the “sensitivity of the cells to cisplatin or oxaliplatin (cytotoxicity of both platinum agents)” value (shortened to “sensitivity of the cells”) is given as “increase the sensitivity”. For the same molecule, in the data set on XPA mRNA, the “XPA mRNA levels” value is listed as “reduce XPA mRNA levels”.

As to “5′(1110)-d(CTGACCTACCACTTCTGCAC)-3′ [HYB 964]”, the “fewer colonies than control HYB 1040 or lipofectin-only (sham) transfected cells” value in the data set with A2780/CP70 cells is listed as “about 50%”. Also, in [1], the “reduction of the ID50 of cisplatin” value is “about 25%”, the “reduction of the ID50 of oxaliplatin” value is “about 25%” and the “sensitivity of the cells” value is reported as “increase the sensitivity”. Moreover, in the data set on XPA mRNA, the “XPA mRNA levels” value is “reduce XPA mRNA levels”.

As for “5′(1612)-d(GCTACATAAGACCAGTGTGC)-3′ (DNA, backbone and methylation of C not given here) [HYB 1019, reference compound]”, in data set [1], the “sensitivity of the cells” value is “did not alter the sensitivity”. Moreover, in the data set on CSB mRNA, the “CSB mRNA levels” value is recorded as “did not reduce the level of CSB mRNA”.

Consider “5′(2037)-d(GGTGACAGCAGCATTTGGAT)-3′ (DNA, backbone not given here) [HYB 969]”, for which, in [1], the “reduction of the ID50 of cisplatin” value amounted to 70%; the “reduction of the ID50 of oxaliplatin” value was found to be 50%; the “potentiation of cisplatin or oxaliplatin, dose response curves normalized to HYB 1019-transfected cells” value was “robust potentiation”. Moreover, in data set [2], the “reduction of proliferation compared to control oligonucleotide (HYB 1019) or sham transfected cells” value was “about 50%”. Further, in data set [3], the “sensitivity of cells to hydrogen peroxide” value was “significantly increased the sensitivity” and the “sensitivity of cells to gamma radiation” value was “significantly increased the sensitivity”. The “reduction of CSB mRNA levels” value in the data set on CSB mRNA is “about 50%”. Besides, the “sensitivity of the cells” value in data set [4] is listed as “substantially enhanced the cytotoxicity”.

On to “5′-(3212)-d(GGAACATCATGGTCTGCTCC)-3′ [HYB 971]”, for which, in data set [1], the “reduction of the ID50 of cisplatin” value is 70%; the “reduction of the ID50 of oxaliplatin” value is given as 50%; the “sensitivity of the cells” value is on record as “substantially enhanced the cytotoxicity”; the “potentiation of cisplatin or oxaliplatin, dose response curves normalized to HYB 1019-transfected cells” value was “robust potentiation”. The “reduction of proliferation compared to control oligonucleotide (HYB 1019) or sham transfected cells” value in data set [2] is reported as “about 50%”. Moreover, in [3], the “sensitivity of cells to hydrogen peroxide” value is given as “significantly increased the sensitivity” and the “sensitivity of cells to gamma radiation” value is on record as “significantly increased the sensitivity”. In the data set on CSB mRNA, the “reduction of CSB mRNA levels” value is reported as “about 50%”.

`O=C([O-])C(=O)[O-].[NH-][C@@H]1CCCC[C@H]1[NH-].[Pt+4]` (relative stereo) [oxaliplatin, Cis [(1R, 2R) 1,2-cyclohexanediamine-N,N′ oxalato (2-)-O,O′] platinum]: in the data set with XP-G fibroblasts, the “sensitivity of XP-G fibroblasts versus NER proficient 5659C fibroblasts” value was “significantly more sensitive”. In addition, the “sensitivity of fibroblasts lacking functional CSA gene product versus restored WT” value in [5] is “significantly more sensitive”. Besides, the “sensitivity of fibroblasts lacking functional CSB gene product versus restored WT” value in [6] was “significantly more sensitive”. The “sensitivity of XP-A fibroblasts versus NER proficient 5659C fibroblasts” value in the data set with XP-A fibroblasts was “significantly more sensitive”.

For the molecule `N.N.[Cl][Pt][Cl]` [cisplatin, CIS-diamminedichloroplatinum], the “sensitivity of XP-G fibroblasts versus NER proficient 5659C fibroblasts” value with XP-G fibroblasts is given as “significantly more sensitive”. Besides, the “sensitivity of fibroblasts lacking functional CSA gene product versus restored WT” value in data set [5] is reported as “significantly more sensitive”. Moreover, the “sensitivity of fibroblasts lacking functional CSB gene product versus restored WT” value in [6] is given as “significantly more sensitive”. Further, the “sensitivity of XP-A fibroblasts versus NER proficient 5659C fibroblasts” value in the data set on XP-A fibroblasts is given as “significantly more sensitive”.
